Earlier results in PMC9516332 (Frontiers in Oncology, 2022).
Where two headings read alike, the source gives them in different places.

Columns and labels:
Conditions in all cases: cited from earlier work
[1] = target: panel of 255 wild-type kinases (Homo sapiens, UniProt P29597)
[2] = target: panel of 255 wild-type kinases (Homo sapiens, UniProt Q9HBH9)
[3] = target: panel of 255 wild-type kinases (Homo sapiens, UniProt P51451)
[4] = target: panel of 255 wild-type kinases (Homo sapiens, UniProt Q8N4C8)
[5] = target: panel of 255 wild-type kinases (Homo sapiens, UniProt P08069)
[6] = target: panel of 255 wild-type kinases (Homo sapiens, UniProt P49760)
[7] = target: panel of 255 wild-type kinases (Homo sapiens, UniProt Q15349)
[8] = target: panel of 255 wild-type kinases (Homo sapiens, UniProt Q13153)
[9] = target: panel of 255 wild-type kinases (Homo sapiens, UniProt Q7KZI7)
[10] = target: T1, panel of 255 wild-type kinases (Homo sapiens, UniProt O00418)
T1 sequence (O00418 1-725): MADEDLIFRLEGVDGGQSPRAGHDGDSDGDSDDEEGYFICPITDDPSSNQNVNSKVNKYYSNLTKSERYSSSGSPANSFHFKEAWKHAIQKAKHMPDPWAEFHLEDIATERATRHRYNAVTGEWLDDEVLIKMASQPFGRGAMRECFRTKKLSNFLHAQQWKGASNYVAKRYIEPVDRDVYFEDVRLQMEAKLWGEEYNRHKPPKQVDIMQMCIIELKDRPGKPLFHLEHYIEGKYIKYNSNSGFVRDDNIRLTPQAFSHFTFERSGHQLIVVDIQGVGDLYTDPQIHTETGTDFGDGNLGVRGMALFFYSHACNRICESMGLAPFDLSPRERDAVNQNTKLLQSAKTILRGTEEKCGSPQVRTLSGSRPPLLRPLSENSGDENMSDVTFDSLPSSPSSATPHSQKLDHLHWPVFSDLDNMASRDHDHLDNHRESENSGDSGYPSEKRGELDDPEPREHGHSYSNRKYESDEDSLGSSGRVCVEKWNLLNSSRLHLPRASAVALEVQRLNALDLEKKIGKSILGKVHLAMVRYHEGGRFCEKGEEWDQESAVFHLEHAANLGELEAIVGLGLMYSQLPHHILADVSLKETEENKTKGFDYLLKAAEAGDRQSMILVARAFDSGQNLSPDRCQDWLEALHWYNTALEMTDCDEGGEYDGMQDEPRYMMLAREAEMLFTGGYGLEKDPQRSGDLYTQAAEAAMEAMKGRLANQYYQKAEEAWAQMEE

[11] = target: T2, panel of 255 wild-type kinases (Homo sapiens, UniProt P54760)
T2 sequence (P54760 16-987): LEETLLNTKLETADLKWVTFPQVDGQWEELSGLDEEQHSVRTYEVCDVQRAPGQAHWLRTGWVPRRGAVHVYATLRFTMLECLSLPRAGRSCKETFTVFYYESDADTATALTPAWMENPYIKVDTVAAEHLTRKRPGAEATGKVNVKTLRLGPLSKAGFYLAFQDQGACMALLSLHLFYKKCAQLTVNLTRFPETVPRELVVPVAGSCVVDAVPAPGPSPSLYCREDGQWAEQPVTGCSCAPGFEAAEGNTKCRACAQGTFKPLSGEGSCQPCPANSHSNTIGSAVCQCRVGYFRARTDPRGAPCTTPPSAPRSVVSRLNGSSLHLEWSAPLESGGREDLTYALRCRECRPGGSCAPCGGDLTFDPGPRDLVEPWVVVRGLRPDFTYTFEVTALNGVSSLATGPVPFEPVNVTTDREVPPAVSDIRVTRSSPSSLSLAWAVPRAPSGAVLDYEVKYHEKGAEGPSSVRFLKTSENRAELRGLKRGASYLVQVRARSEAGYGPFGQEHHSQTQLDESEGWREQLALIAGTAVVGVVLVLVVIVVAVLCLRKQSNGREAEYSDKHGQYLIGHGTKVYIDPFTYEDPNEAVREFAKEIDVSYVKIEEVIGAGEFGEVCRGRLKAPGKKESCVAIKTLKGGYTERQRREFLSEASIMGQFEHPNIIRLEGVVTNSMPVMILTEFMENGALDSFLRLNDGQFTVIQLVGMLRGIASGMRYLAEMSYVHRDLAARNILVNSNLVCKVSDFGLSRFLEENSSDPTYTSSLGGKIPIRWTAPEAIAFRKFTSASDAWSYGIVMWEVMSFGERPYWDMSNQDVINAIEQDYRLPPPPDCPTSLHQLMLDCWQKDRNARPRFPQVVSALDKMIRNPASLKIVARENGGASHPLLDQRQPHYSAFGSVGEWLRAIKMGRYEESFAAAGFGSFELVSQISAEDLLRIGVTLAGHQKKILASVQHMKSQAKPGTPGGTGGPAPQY

[12] = kinase TYK2, 1 µmol/L single concentration, ref DOI: 10.1158/1535-7163.MCT-18-0877
[13] = MNK2, 1 µmol/L single concentration, ref DOI: 10.1158/1535-7163.MCT-18-0877
[14] = BLK kinase assay, 1 µmol/L single concentration, ref DOI: 10.1158/1535-7163.MCT-18-0877
[15] = MINK, 1 µmol/L single concentration, ref DOI: 10.1158/1535-7163.MCT-18-0877
[16] = kinase IGF1R, 1 µmol/L single concentration, ref DOI: 10.1158/1535-7163.MCT-18-0877
[17] = kinase CLK2, 1 µmol/L single concentration, ref DOI: 10.1158/1535-7163.MCT-18-0877
[18] = kinase RSK3, 1 µmol/L single concentration, ref DOI: 10.1158/1535-7163.MCT-18-0877
[19] = PAK1, 1 µmol/L single concentration, ref DOI: 10.1158/1535-7163.MCT-18-0877
[20] = MARK2, 1 µmol/L single concentration, ref DOI: 10.1158/1535-7163.MCT-18-0877
[21] = kinase EEF2K, 1 µmol/L single concentration, ref DOI: 10.1158/1535-7163.MCT-18-0877
[22] = kinase EPHB4, 1 µmol/L single concentration, ref DOI: 10.1158/1535-7163.MCT-18-0877
[23] = kinase TYK2, 1 µmol/L single concentration, ref DOI: 10.1371/journal.pone.0092146
[24] = BLK kinase assay, 1 µmol/L single concentration, ref DOI: 10.1371/journal.pone.0092146
[25] = MINK, 1 µmol/L single concentration, ref DOI: 10.1371/journal.pone.0092146
[26] = kinase CLK2, 1 µmol/L single concentration, ref DOI: 10.1371/journal.pone.0092146
[27] = MARK2, 1 µmol/L single concentration, ref DOI: 10.1371/journal.pone.0092146
[28] = MNK2, 1 µmol/L single concentration, ref DOI: 10.1371/journal.pone.0092146
[29] = kinase IGF1R, 1 µmol/L single concentration, ref DOI: 10.1371/journal.pone.0092146
[30] = kinase RSK3, 1 µmol/L single concentration, ref DOI: 10.1371/journal.pone.0092146
[31] = PAK1, 1 µmol/L single concentration, ref DOI: 10.1371/journal.pone.0092146
[32] = kinase EEF2K, 1 µmol/L single concentration, ref DOI: 10.1371/journal.pone.0092146
[33] = kinase EPHB4, 1 µmol/L single concentration, ref DOI: 10.1371/journal.pone.0092146

SMILES | %-inhibition at 1 µmol/L, TYK2 [1, 12] | %-inhibition, MNK2 [2, 13] | %-inhibition BLK [3, 14] | %-inhibition, MINK [4, 15] | %-inhibition at 1 µmol/L, IGF1R [5, 16] | %-inhibition at 1 µmol/L, CLK2 [6, 17] | %-inhibition at 1 µmol/L, RSK3 [7, 18] | %-inhibition, PAK1 [8, 19] | %-inhibition, MARK2 [9, 20] | %-inhibition at 1 µmol/L, EEF2K [10, 21] | %-inhibition at 1 µmol/L, EPHB4 [11, 22] | %-inhibition at 1 µmol/L, TYK2 [1, 23] | %-inhibition BLK [3, 24] | %-inhibition, MINK [4, 25] | %-inhibition at 1 µmol/L, CLK2 [6, 26] | %-inhibition, MARK2 [9, 27] | %-inhibition, MNK2 [2, 28] | %-inhibition at 1 µmol/L, IGF1R [5, 29] | %-inhibition at 1 µmol/L, RSK3 [7, 30] | %-inhibition, PAK1 [8, 31] | other results
O=C(c1ccc(F)c(F)c1Nc1ccc(I)cc1F)N1CC(O)([C@@H]2CCCCN2)C1 [cobimetinib] | 6.35% | 8% | 10% | -2.67% | 6% | 0.147% | 8% | 3.21% | -6.58% | -0.685% | -2.41% |  |  |  |  |  |  |  |  |  | 
CC(C)(C)c1nc(-c2cccc(NS(=O)(=O)c3c(F)cccc3F)c2F)c(-c2ccnc(N)n2)s1 [dabrafenib] |  |  |  |  |  |  |  |  |  |  |  | 10% | 80% | -0.772% | 0.875% | 2.85% |  |  |  |  | 
Cc1cc(Nc2ncc(Cl)c(Nc3ccccc3S(=O)(=O)C(C)C)n2)c(OC(C)C)cc1C1CCNCC1 [ceritinib] | 13% | 76% | 2% | 1.46% | 103% | 99% | 90% | 7.58% | 4% | 11% | 3.73% |  |  |  |  |  |  |  |  |  | 
CCc1cc2c(cc1N1CCC(N3CCOCC3)CC1)C(C)(C)c1[nH]c3cc(C#N)ccc3c1C2=O [alectinib] | 14% | 13% | 17% |  | 10% | 14% |  | -14% | 5.66% | -0.237% | 11% |  |  |  |  |  |  |  |  |  | 
CCCS(=O)(=O)Nc1ccc(F)c(C(=O)c2c[nH]c3ncc(-c4ccc(Cl)cc4)cc23)c1F [vemurafenib] |  |  |  |  |  |  |  |  |  |  |  | 6% | 52% | 10% | -13% | -0.167% | 27% | 10% | -0.497% | -5% | %-inhibition at 1 µmol/L, EEF2K [10, 32]: -5%; %-inhibition at 1 µmol/L, EPHB4 [11, 33]: 3.73%
COc1cc(N2CCC(N3CCN(C)CC3)CC2)ccc1Nc1ncc(Cl)c(Nc2ccccc2P(C)(C)=O)n1 [brigatinib] |  |  |  |  |  |  |  |  |  |  |  |  |  |  |  |  |  |  |  |  | %-inhibition at 1 µmol/L, TYK2 [1]: 23%; %-inhibition, MNK2 [2]: 66%; %-inhibition BLK [3]: 83%; %-inhibition, MINK [4]: 6%; %-inhibition at 1 µmol/L, IGF1R [5]: 99%; %-inhibition at 1 µmol/L, CLK2 [6]: 91%; %-inhibition at 1 µmol/L, RSK3 [7]: 100%; %-inhibition, PAK1 [8]: 4.27%; %-inhibition, MARK2 [9]: 96%; %-inhibition at 1 µmol/L, EEF2K [10]: 2.53%; %-inhibition at 1 µmol/L, EPHB4 [11]: 9%
CC(=O)Nc1cccc(-n2c(=O)n(C3CC3)c(=O)c3c(Nc4ccc(I)cc4F)n(C)c(=O)c(C)c32)c1 [trametinib] |  |  |  |  |  |  |  |  |  |  |  | 2.16% | -2.79% | -1.8% | -5% | -6% | -11% | -10% | -5% | -1.35% | %-inhibition at 1 µmol/L, EEF2K [10, 32]: -3.43%; %-inhibition at 1 µmol/L, EPHB4 [11, 33]: -3.38%
CO[C@@H]1[C@H](N(C)C(=O)c2ccccc2)C[C@H]2O[C@]1(C)n1c3ccccc3c3c4c(c5c6ccccc6n2c5c31)C(=O)NC4 [midostaurin] |  | 80% | 84% | 88% | 24% |  | 98% |  |  | -9% | 1.2% |  |  |  |  |  |  |  |  |  | 
C=CC(=O)N1CCC[C@@H](n2nc(-c3ccc(Oc4ccccc4)cc3)c3c(N)ncnc32)C1 [ibrutinib] | 7% | 20% | 101% | -6.41% | 7.45% |  | 9% | 6.57% | 2.67% | 1.15% | 27% |  |  |  |  |  |  |  |  |  | 
C[C@@H](Oc1cc(-c2cnn(C3CCNCC3)c2)cnc1N)c1c(Cl)ccc(F)c1Cl [crizotinib] |  |  |  |  |  |  |  |  |  |  |  | 21% |  | 0% | -6% | 26% | 2% | 80% | 3.34% | -4% | %-inhibition at 1 µmol/L, EEF2K [10, 32]: -4.6%; %-inhibition at 1 µmol/L, EPHB4 [11, 33]: 83%
